Reference: patent US20240316023A1, “BENEDIN, PIPERIDINE, 2-BENZHYDRYL-3-HYDROXY-N-METHYL-, HYDROCHLORIDE AND DERIVATIVES THEREOF FOR USE IN TREATING KLEINE-LEVIN SYNDROME” (priority 2021, published 2024)

How the values were obtained:
Mice, C57BL/6J, male = test: Novel object recognition (NOR) test, long-term memory; assay type: in vivo; settings: for DI Discrimination Index = 100 × (N − F)/(N + F) / N − F Exploration time novel − familiar object: choice trial 72 h post treatment, mean, N = 16; for recognition of the familiar object, i.e. memory: 3-days interval
Description: Long-term episodic memory was tested in the NOR test, using a 3-days interval between the acquisition session (called sample trial) and the retention session (called choice trial). This method allows to detect an improvement of memory in the natural forgetting condition:
The test was carried out in circular boxes (30 cm diameter, 40 cm high). The objects to be discriminated (L≈1≈h≈3-4 cm) differed in both color and shape and were referred as yellow duck and blue lego. They were fixed with a magnet to the floor of the boxes at 5 cm of the wall, 20 cm distant. Apparently, they have no natural significance for mice and they have never been associated with a reinforcement. In order to rule out the possibility of scent traces left on the objects and therefore the dependency of the recognition capacity of mice on the olfactory cue, the objects and the ground of the box were washed with an odorless disinfectant (Sanicid® diluted in water) and dried between each trial. A camcorder was fixed to the ceiling above the box to record the animals' activity. The experiment was analyzed blindly at a later time.
On the week before the test, animals were handled by the experimenter in charge of the experiment in order to be not stressed at the time of testing. For this purpose, the experimenter placed a small amount of litter, and then the mouse on its hand. […] The NOR test was completed over five days (see FIG. 1): • Day 1: Habituation trial. Animals were individually placed for a 15-min free exploration session in empty open boxes. • Day 2. Treatment administration and sample trial. […] They were individually placed 30 min after in the apparatus for a 6-min session with two identical objects (Duck, 50% of animals or Lego, 50% of animals). • […]. […]. The mice were individually placed for a 6-min session in the apparatus with two objects (Duck and Lego), one of the objects presented in sample trials (termed as familiar objects) and a novel object (Lego, 50% of animals or Duck, 50% of animals).
The sample and choice trials were recorded with the camera located above the apparatus. The time spent by mice in exploring the objects was measured during the sample trial and the choice trial.
Exploration of an object was defined as follows: directing the nose to the object at a distance≤2 cm and/or touching it with the nose or forelimbs: turning around or biting the object, or sitting on the object were not considered as exploratory behavior.
Data recorded: • L=exploration time of the left object in the sample trial. • R=exploration time of the right object in the sample trial. • N=exploration time of the new object in the choice trial. • F=exploration time of the familiar object in the choice trial. Object recognition task indices include the following parameters: • Exploration indices: • ST=L+R=exploration time (left object+right object) in the sample trial. • CT=N+F=exploration time (new object+familiar object) in the choice trial. • Two memory indices: • N−F=difference of exploration time between the new object and the familiar object in the choice trial.
Statistical analyses: • Read-outs: DI, N−F, ST, CT, N, F • Unpaired Student's t test: Donep 2 group vs. Control group. • One-way ANOVA, Dunnett test: • Benedin groups vs. Control group. • Benedin groups vs. Donep 2 group. • Read-outs: DI and N−F, for all groups, paired Student's t test, difference vs. 0. • Body weight: one-way ANOVA.

[1] = biological target: T1, M3 (h) (antagonist radioligand) (Homo sapiens, UniProt P20309); test: Radioligand binding panel (Eurofins/CEREP), M3; settings: 10^−5 M; % inhibition of control specific binding; read-out: % Inhibition at 10^−5M Benedin
T1 construct: CEREP (Eurofins, France), contract panel
Description: (§1) Benedin was tested at 10^−5 M, calculated as a % inhibition of control specific binding of a radioactively labeled ligand specific for each target.
(§2) This binding profile panel was broadly defined with roughly an equal number of selective, central and peripheral therapeutically relevant targets, including native animal tissues, radioligands and specific enzymes involved in cell cycle regulation in accordance with Eurofins Standard Operating Procedure.
(§3) For radioligand binding experiments, the half maximal inhibitory concentration (IC50) and the half maximal effective concentration (EC50) values were determined (via computer software) by nonlinear regression analysis of the competition curves using Hill equation curve fitting. The inhibition constants (Ki) were calculated using the Cheng-Prusoff equation (Ki=IC50/(1+(L/KD)), where L is the concentration of radioligand in the assay, and KD is the affinity of the radioligand for the receptor.^60
(§4) The results are expressed as a % control specific binding ([measured specific binding/control specific binding]×100) and as a % inhibition of control specific binding (100−[(measured specific binding/control specific binding)×100] obtained in the presence of the test compounds. […]

[2] = biological target: T2, mu (h) (MOP) (agonist radioligand) (Homo sapiens, UniProt P35372); test: Radioligand binding panel (Eurofins/CEREP), mu opioid; settings: 10^−5 M; % inhibition of control specific binding; read-out: % Inhibition at 10^−5M Benedin
T2 construct: CEREP (Eurofins, France), contract panel
Description: as §1, §2, §3, §4

T2 sequence (P35372 whole entry): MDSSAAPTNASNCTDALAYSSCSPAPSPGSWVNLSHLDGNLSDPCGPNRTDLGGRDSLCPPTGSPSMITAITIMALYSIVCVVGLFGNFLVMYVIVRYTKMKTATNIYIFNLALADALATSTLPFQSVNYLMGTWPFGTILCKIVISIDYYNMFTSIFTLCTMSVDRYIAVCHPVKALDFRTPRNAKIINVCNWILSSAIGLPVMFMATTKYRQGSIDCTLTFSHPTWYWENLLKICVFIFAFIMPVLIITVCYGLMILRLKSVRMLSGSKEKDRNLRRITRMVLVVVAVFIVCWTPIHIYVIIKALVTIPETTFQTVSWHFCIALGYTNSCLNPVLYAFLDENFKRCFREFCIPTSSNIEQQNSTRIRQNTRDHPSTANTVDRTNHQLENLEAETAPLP
T1 sequence (P20309 whole entry): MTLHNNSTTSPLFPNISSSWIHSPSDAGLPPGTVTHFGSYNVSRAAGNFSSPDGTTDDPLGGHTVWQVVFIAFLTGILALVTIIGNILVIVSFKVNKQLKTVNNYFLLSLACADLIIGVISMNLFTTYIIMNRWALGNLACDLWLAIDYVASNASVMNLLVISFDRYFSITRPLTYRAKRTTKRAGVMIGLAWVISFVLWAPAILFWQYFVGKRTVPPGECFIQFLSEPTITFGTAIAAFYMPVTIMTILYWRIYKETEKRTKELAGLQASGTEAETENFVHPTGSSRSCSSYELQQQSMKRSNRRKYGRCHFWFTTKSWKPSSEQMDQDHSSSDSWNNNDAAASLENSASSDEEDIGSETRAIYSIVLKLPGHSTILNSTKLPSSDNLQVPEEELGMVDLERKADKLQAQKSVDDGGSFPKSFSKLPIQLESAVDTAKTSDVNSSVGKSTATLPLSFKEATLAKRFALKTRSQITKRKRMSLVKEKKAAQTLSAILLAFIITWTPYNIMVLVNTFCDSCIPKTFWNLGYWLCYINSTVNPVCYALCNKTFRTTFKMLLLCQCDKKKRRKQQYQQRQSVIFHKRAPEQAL

Q: For CN1CCCC(O)C1C(c1ccccc1)c1ccccc1 (centres unmarked) [Benedin, 2-benzhydryl-3-hydroxy-N-methyl-piperidine], which “DI Discrimination Index = 100 × (N − F)/(N + F)” value (“DI Discrimination Index = 100 ×” for short) (Mice, C57BL/6J, male; Benedin 0.1 mg/kg i.p. 30 min before sample trial) is on record?
A: not significantly different from 0

Q: And the “DI Discrimination Index = 100 ×” value (Mice, C57BL/6J, male; Benedin 0.1 mg/kg i.p. 30 min before sample trial, listed as NLS-11)?
A: 12.0

Q: What about the “recognition of the familiar object, i.e. memory” value (“recognition” for short) (Mice, C57BL/6J, male; Benedin 0.1 mg/kg i.p.) of the same compound?
A: not significant

Q: What about the “N − F Exploration time novel − familiar object” value (Mice, C57BL/6J, male; Benedin 0.1 mg/kg i.p.) of the same compound?
A: not significantly different from 0

Q: And the “N − F Exploration time novel − familiar object” value (Mice, C57BL/6J, male; Benedin 0.1 mg/kg i.p., listed as NLS-11)?
A: 3.4 s

Q: And the “DI Discrimination Index = 100 ×” value (Mice, C57BL/6J, male; Benedin 0.5 mg/kg i.p. 30 min before sample trial)?
A: significantly higher than 0

Q: What about the “DI Discrimination Index = 100 ×” value (Mice, C57BL/6J, male; Benedin 0.5 mg/kg i.p. 30 min before sample trial, listed as NLS-11) of the same compound?
A: 23.5

Q: What about the “recognition” value (Mice, C57BL/6J, male; Benedin 0.5 mg/kg i.p.) of the same compound?
A: significant

Q: And the “N − F Exploration time novel − familiar object” value (Mice, C57BL/6J, male; Benedin 0.5 mg/kg i.p.)?
A: significantly higher than 0

Q: What about the “N − F Exploration time novel − familiar object” value (Mice, C57BL/6J, male; Benedin 0.5 mg/kg i.p., listed as NLS-11) of the same compound?
A: 6.2 s

Q: What about the “DI Discrimination Index = 100 ×” value (Mice, C57BL/6J, male; Benedin 1 mg/kg i.p. 30 min before sample trial) of the same compound?
A: not significantly different from 0

Q: What about the “DI Discrimination Index = 100 ×” value (Mice, C57BL/6J, male; Benedin 1 mg/kg i.p. 30 min before sample trial, listed as NLS-11) of the same compound?
A: 13.0

Q: What about the “recognition” value (Mice, C57BL/6J, male; Benedin 1 mg/kg i.p.) of the same compound?
A: not significant

Q: What about the “N − F Exploration time novel − familiar object” value (Mice, C57BL/6J, male; Benedin 1 mg/kg i.p.) of the same compound?
A: not significantly different from 0

Q: And the “N − F Exploration time novel − familiar object” value (Mice, C57BL/6J, male; Benedin 1 mg/kg i.p., listed as NLS-11)?
A: 4.0 s

Q: And the inhibition at 10 µM [1]?
A: 44.6%

Q: And the inhibition at 10 µM [2]?
A: 24.4%
